{"source": "ChEMBL document CHEMBL1201862", "about": "“PubChem BioAssay data set” (2004)", "key": {"[1]": {"target": "Dual specificity tyrosine-phosphorylation-regulated kinase 4 (Homo sapiens, UniProt Q9NR20)", "assay_type": "functional"}, "[2]": {"target": "Inhibitor of nuclear factor kappa-B kinase subunit alpha (Homo sapiens, UniProt O15111)", "assay_type": "functional"}, "[3]": {"target": "Serine/threonine-protein kinase Chk2 (Homo sapiens, UniProt O96017)", "assay_type": "functional"}, "[4]": {"target": "Protein kinase C gamma type (Homo sapiens, UniProt P05129)", "assay_type": "functional"}, "[5]": {"target": "Serine/threonine-protein kinase Nek4 (Homo sapiens, UniProt P51957)", "assay_type": "functional"}, "[6]": {"target": "Mitogen-activated protein kinase 13 (Homo sapiens, UniProt O15264)", "assay_type": "functional"}, "[7]": {"target": "Inhibitor of nuclear factor kappa-B kinase subunit beta (Homo sapiens, UniProt O14920)", "assay_type": "functional"}, "Misshapen-like kinase 1": {"target": "Misshapen-like kinase 1 (Homo sapiens, UniProt Q8N4C8)", "sequence (Q8N4C8 whole entry)": "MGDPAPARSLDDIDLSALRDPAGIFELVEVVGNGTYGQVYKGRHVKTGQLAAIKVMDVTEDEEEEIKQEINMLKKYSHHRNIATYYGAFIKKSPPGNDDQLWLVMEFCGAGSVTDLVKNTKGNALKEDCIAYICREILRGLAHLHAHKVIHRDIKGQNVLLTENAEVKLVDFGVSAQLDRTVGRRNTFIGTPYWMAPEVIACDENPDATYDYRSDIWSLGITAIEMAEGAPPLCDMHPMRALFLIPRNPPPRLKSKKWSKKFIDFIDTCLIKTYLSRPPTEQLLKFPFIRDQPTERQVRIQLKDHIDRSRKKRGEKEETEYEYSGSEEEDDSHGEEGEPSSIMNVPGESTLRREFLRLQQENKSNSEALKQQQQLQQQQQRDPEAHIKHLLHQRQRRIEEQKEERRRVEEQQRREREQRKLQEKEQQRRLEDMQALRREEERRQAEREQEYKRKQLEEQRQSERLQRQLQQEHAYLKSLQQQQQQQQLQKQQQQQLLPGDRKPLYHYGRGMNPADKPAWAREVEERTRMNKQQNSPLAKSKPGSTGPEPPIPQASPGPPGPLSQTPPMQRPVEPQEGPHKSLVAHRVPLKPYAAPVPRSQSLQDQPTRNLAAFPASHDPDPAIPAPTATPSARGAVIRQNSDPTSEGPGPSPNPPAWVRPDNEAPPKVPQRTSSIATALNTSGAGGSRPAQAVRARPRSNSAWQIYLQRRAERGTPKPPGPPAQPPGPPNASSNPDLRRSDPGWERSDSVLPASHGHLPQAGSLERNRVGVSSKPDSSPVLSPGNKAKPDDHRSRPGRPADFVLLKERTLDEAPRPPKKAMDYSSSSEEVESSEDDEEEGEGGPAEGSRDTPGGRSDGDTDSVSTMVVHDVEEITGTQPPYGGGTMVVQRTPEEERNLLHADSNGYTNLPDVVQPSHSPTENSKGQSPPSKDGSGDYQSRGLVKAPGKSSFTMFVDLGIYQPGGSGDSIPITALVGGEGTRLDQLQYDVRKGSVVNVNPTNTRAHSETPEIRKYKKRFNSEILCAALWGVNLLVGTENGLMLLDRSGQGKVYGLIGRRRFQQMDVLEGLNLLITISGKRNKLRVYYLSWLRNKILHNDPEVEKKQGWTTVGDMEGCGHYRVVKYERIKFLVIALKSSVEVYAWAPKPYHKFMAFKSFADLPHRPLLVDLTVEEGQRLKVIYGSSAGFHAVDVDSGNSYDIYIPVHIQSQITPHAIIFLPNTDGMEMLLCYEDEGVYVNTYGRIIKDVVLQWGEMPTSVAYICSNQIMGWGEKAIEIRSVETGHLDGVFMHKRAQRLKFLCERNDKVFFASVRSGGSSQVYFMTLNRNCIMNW", "assay_type": "functional"}, "[8]": {"target": "Eukaryotic elongation factor 2 kinase (Homo sapiens, UniProt O00418)", "sequence (O00418 whole entry)": "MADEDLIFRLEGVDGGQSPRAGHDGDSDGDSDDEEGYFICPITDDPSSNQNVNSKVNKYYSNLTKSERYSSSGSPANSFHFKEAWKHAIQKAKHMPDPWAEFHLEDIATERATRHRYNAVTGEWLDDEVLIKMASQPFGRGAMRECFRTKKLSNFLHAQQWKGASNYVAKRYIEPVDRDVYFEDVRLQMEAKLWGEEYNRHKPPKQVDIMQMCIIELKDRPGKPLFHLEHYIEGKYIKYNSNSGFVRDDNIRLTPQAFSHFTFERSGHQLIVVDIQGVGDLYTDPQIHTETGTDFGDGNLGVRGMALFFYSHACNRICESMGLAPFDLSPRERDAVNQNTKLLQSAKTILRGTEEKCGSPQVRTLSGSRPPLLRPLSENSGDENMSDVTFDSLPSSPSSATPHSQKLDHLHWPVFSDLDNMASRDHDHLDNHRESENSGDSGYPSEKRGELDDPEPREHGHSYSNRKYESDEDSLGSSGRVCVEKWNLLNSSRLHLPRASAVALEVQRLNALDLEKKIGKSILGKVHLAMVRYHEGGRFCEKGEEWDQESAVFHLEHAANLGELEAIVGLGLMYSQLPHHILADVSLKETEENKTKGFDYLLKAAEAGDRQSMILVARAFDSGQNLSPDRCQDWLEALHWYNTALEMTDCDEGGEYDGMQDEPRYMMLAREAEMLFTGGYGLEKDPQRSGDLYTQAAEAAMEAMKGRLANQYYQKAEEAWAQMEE", "assay_type": "functional"}, "[9]": {"target": "Homeodomain-interacting protein kinase 4 (Homo sapiens, UniProt Q8NE63)", "assay_type": "functional"}, "[10]": {"target": "Homeodomain-interacting protein kinase 2 (Homo sapiens, UniProt Q9H2X6)", "sequence (Q9H2X6 whole entry)": "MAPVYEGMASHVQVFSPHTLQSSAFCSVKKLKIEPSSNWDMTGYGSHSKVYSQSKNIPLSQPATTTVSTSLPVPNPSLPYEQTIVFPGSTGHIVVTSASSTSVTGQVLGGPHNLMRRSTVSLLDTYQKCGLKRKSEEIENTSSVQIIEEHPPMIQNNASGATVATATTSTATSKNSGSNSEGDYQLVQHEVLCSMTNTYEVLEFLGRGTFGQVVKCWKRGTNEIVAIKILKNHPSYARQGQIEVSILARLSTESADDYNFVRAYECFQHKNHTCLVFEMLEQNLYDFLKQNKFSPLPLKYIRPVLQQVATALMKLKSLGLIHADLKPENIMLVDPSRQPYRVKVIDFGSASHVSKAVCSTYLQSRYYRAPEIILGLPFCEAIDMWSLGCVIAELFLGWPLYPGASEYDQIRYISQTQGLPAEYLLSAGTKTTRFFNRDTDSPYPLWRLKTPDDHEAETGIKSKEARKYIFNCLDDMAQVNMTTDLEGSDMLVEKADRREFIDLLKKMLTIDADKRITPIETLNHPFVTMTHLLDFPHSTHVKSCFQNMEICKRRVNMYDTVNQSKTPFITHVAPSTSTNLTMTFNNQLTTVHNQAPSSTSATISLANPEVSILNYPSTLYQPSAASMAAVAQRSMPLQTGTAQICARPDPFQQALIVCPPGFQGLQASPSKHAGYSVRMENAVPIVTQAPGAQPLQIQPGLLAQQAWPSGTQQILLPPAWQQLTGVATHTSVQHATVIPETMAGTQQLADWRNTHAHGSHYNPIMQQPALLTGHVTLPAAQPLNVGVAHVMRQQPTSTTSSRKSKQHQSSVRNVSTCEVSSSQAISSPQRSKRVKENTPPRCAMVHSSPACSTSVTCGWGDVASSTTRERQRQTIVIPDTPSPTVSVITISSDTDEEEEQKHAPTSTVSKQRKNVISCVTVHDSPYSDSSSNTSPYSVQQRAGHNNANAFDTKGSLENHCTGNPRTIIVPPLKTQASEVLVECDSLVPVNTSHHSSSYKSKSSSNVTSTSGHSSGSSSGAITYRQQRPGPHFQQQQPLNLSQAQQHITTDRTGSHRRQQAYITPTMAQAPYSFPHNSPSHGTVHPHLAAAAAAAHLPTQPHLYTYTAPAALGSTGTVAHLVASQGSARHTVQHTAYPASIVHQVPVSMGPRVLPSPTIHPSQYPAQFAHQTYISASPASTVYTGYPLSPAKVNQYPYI", "assay_type": "functional"}, "[11]": {"target": "MAP kinase-activated protein kinase 3 (Homo sapiens, UniProt Q16644)", "sequence (Q16644 whole entry)": "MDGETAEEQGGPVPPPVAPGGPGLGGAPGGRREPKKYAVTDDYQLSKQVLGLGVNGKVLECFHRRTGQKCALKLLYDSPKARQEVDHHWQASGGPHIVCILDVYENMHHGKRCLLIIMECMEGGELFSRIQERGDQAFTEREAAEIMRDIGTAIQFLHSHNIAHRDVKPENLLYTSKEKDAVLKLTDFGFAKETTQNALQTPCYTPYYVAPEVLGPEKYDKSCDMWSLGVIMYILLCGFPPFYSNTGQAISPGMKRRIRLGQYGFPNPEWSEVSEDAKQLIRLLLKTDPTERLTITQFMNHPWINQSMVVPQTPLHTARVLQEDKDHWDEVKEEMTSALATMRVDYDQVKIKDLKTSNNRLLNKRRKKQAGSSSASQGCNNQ", "assay_type": "functional"}, "[12]": {"target": "Megakaryocyte-associated tyrosine-protein kinase (Homo sapiens, UniProt P42679)", "assay_type": "functional"}, "[13]": {"target": "Cell division cycle 7-related protein kinase (Homo sapiens, UniProt O00311)", "sequence (O00311 whole entry)": "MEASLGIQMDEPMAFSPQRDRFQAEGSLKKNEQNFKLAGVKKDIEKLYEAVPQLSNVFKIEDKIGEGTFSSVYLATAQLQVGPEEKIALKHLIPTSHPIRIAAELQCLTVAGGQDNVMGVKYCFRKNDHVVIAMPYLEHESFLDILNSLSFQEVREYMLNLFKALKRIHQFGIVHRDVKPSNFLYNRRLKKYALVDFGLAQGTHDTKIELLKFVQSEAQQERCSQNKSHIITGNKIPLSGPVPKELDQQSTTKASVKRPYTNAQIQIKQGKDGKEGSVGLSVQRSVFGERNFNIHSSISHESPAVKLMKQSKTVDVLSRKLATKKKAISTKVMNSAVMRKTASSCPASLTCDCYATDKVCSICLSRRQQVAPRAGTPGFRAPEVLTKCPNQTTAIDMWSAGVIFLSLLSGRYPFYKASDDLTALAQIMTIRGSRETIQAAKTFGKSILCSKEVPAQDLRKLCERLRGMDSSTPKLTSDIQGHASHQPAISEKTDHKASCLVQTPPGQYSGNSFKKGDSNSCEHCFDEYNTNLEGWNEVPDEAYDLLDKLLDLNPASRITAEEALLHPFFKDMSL", "assay_type": "functional"}, "[14]": {"target": "Dual specificity protein kinase CLK4 (Homo sapiens, UniProt Q9HAZ1)", "assay_type": "functional"}, "[15]": {"target": "cAMP-dependent protein kinase catalytic subunit alpha (Homo sapiens, UniProt P17612)", "assay_type": "functional"}, "[16]": {"target": "Serine/threonine-protein kinase pim-1 (Homo sapiens, UniProt P11309)", "sequence (P11309 whole entry)": "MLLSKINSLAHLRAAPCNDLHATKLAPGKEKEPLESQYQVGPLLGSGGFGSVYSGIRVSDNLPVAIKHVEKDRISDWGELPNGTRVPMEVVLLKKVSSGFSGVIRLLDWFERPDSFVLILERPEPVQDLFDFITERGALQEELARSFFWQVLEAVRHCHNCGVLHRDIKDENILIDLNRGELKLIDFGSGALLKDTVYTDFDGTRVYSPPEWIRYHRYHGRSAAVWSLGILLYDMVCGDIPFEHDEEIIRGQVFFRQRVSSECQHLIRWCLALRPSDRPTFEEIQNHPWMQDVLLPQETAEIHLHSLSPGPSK", "assay_type": "functional"}, "[17]": {"target": "Glycogen synthase kinase-3 beta (Homo sapiens, UniProt P49841)", "assay_type": "functional"}, "[18]": {"target": "Mitogen-activated protein kinase kinase kinase kinase 4 (Homo sapiens, UniProt O95819)", "assay_type": "functional"}, "[19]": {"target": "Interleukin-1 receptor-associated kinase 4 (Homo sapiens, UniProt Q9NWZ3)", "assay_type": "functional"}, "[20]": {"target": "MAP kinase-interacting serine/threonine-protein kinase 2 (Homo sapiens, UniProt Q9HBH9)", "assay_type": "functional"}, "Orexin receptor type 2 [21]": {"target": "T1, Orexin receptor type 2 (Homo sapiens, UniProt O43614)", "T1 sequence (O43614 whole entry)": "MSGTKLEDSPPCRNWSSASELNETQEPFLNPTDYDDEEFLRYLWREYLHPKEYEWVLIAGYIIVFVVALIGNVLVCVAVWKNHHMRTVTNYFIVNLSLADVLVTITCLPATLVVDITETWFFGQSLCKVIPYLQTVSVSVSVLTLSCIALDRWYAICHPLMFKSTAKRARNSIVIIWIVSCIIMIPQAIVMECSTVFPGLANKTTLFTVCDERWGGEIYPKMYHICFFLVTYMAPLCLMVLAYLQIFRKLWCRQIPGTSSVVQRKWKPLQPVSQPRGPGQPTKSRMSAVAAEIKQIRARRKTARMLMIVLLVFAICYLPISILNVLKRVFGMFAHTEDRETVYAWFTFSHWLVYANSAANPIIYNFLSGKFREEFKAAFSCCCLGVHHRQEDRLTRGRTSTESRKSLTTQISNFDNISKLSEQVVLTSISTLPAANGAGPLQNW", "assay": "Counterscreen assay for antagonists of the orexin 1 receptor (OX1R; HCRTR1): Fluorescence-based cell-based dose response assay for antagonists of the orexin 2 receptor (OX2R; HCRTR2), run by assay provider.", "assay_type": "functional"}, "Orexin receptor type 2 [22]": {"target": "T1, Orexin receptor type 2", "assay": "Counterscreen assay for antagonists of the orexin 1 receptor (OX1R; HCRTR1): Homogeneous Time Resolved Fluorescence (HTRF)-based cell-based dose response assay for antagonists of the orexin 2 receptor (OX2R; HCRTR2), run by assay provider.", "assay_type": "functional"}, "[23]": {"target": "T2, Orexin/Hypocretin receptor type 1 (Homo sapiens, UniProt O43613)", "T2 sequence (O43613 whole entry)": "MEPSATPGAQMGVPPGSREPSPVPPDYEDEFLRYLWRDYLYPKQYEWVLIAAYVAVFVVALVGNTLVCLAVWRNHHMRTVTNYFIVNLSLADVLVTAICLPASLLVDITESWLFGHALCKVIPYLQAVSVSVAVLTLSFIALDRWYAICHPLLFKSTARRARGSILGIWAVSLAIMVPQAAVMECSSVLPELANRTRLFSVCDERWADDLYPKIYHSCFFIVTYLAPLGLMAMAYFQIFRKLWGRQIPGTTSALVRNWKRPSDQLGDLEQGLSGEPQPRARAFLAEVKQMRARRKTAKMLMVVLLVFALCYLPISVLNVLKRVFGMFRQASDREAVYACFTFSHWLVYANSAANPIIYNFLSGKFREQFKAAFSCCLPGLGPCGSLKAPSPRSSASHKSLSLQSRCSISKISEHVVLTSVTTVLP", "assay": "(§1) Fluorescence-based cell-based high throughput dose response assay for antagonists of the orexin 1 receptor (OX1R; HCRTR1). [Related pubchem assays (depositor defined):AID434989, AID435008, AID463079, AID485270, AID492963, AID492964, AID492965, AID493232, AID504717, AID504718]", "assay_type": "functional"}, "[24]": {"assay": "(§2) Counterscreen for antagonists of the orexin 1 receptor (OX1R; HCRTR1): Fluorescence-based cell-based high throughput dose response assay to identify antagonists of the parental CHO cell line. [Related pubchem assays (depositor defined):AID434989, AID435008, AID463079, AID485270, AID492963, AID492964, AID492965, AID493232, AID504699, AID504701]", "assay_type": "functional"}, "[25]": {"target": "T2, Orexin/Hypocretin receptor type 1", "assay": "as §1, with “Homogeneous Time Resolved Fluorescence (HTRF)-based” for “Fluorescence-based”", "assay_type": "functional"}, "CHO-K1": {"system": "CHO-K1", "assay": "as §2, with “Homogeneous time resolved fluorescence (HTRF)-based” for “Fluorescence-based”, “cell-based” for “cell-based high throughput”, “CHO-K1” for “CHO”", "assay_type": "functional", "conditions": "Cricetulus griseus"}, "[26]": {"assay": "microbe, parasite or virus in culture", "assay_type": "functional", "conditions": "Mycobacterium tuberculosis"}, "Candida albicans [27]": {"system": "Candida albicans", "assay": "fluconazole-resistant Candida strain growth inhibitors – CaCi-8 strain, dry powder, set 4, dose response (AID 488950)", "assay_type": "functional, organism-based"}, "Candida albicans [28]": {"system": "Candida albicans", "assay": "C. albicans growth inhibition with fluconazole – CaCi-2 strain, Alamar Blue, dry powder, set 4, dose response (AID 488943)", "assay_type": "functional, organism-based"}, "Candida albicans [29]": {"system": "Candida albicans", "assay": "Candida growth inhibition combined with fluconazole – CaCi-2 strain, Alamar Blue, dry powder, set 3, dose response (AID 488907)", "assay_type": "functional, organism-based"}, "Candida albicans [30]": {"system": "Candida albicans", "assay": "resistant Candida growth with fluconazole co-treatment – CaCi-8 strain, Alamar Blue, dry powder, set 3, dose response (AID 488905)", "assay_type": "functional, organism-based"}, "Candida albicans [31]": {"system": "Candida albicans", "assay": "single-agent toxicity toward C. albicans – CaCi-2 strain, no fluconazole, dry powder, set 4, counter-screen for reversing antifungal drug resistance, dose response (AID 488932)", "assay_type": "functional, organism-based"}, "INS1 [32]": {"system": "INS1", "assay": "suppression of NO production in INS-1E cells – cell-based, Griess absorbance, dry powder, dose response (AID 488866)", "assay_type": "functional", "conditions": "Rattus norvegicus"}, "INS1 [33]": {"system": "INS1", "assay": "beta-cell survival under cytokine stress – INS-1E, ATP luminescence, dry powder, dose response (AID 488844)", "assay_type": "functional, cell-based", "conditions": "Rattus norvegicus"}, "INS1 [34]": {"system": "INS1", "assay": "suppression of NO production in INS-1E cells – cell-based, Griess absorbance, dry powder, set 2, dose response (AID 488868)", "assay_type": "functional", "conditions": "Rattus norvegicus"}, "[35]": {"assay": "suppression of NO production in INS-1E cells – cell-based, Griess absorbance, dry powder, set 3, dose response (AID 488870)", "assay_type": "functional", "conditions": "Rattus norvegicus"}}, "note": "The source made the active and inactive calls."}
{"compound": "CCC(CO)Nc1nc(NCc2ccccc2)c2ncn(C(C)C)c2n1", "note": "(stereo not drawn) [(RS)-ROSCOVITINE]", "values": [{"measurement": "Ki", "setting": "[1]", "value": "> 7.94 µM (inactive)"}, {"measurement": "Ki", "setting": "[2]", "value": "> 3.98 µM (inactive)"}, {"measurement": "Ki", "setting": "[3]", "value": "> 5.01 µM (inactive)"}, {"measurement": "Ki", "setting": "[4]", "value": "> 7.94 µM (inactive)"}, {"measurement": "Ki", "setting": "[5]", "value": "> 6.31 µM (inactive)"}, {"measurement": "Ki", "setting": "[6]", "value": "> 7.94 µM (inactive)"}, {"measurement": "Ki", "setting": "[7]", "value": "> 3.16 µM (inactive)"}, {"measurement": "Ki", "setting": "Misshapen-like kinase 1", "value": "> 7.94 µM (inactive)"}, {"measurement": "Ki", "setting": "[8]", "value": "> 3.98 µM (inactive)"}, {"measurement": "Ki", "setting": "[9]", "value": "1.58 µM (active)"}, {"measurement": "Ki", "setting": "[10]", "value": "> 3.16 µM (inactive)"}, {"measurement": "Ki", "setting": "[11]", "value": "> 10 µM (inactive)"}, {"measurement": "Ki", "setting": "[12]", "value": "> 2 µM (inactive)"}]}
{"compound": "c1ccc(Cn2cc(-c3ccc4[nH]nc(-c5ccccc5)c4c3)nn2)cc1", "values": [{"measurement": "Ki", "setting": "[13]", "value": "7.94 nM (active)"}, {"measurement": "Ki", "setting": "[14]", "value": "3.98 nM (active)"}, {"measurement": "Ki", "setting": "[15]", "value": "3.98 µM (active)"}, {"measurement": "Ki", "setting": "[16]", "value": "251 nM (active)"}, {"measurement": "Ki", "setting": "[17]", "value": "20 nM (active)"}, {"measurement": "Ki", "setting": "[18]", "value": "39.8 nM (active)"}, {"measurement": "Ki", "setting": "[19]", "value": "631 nM (active)"}, {"measurement": "Ki", "setting": "[10]", "value": "0.0316 µM (active)"}, {"measurement": "Ki", "setting": "[20]", "value": "200 nM (active)"}]}
{"compound": "OCC1(Cc2cccc(Cl)c2)CCCN(Cc2ccc3cc(F)ccc3n2)C1", "note": "(stereo not drawn)", "values": [{"measurement": "IC50", "setting": "Orexin receptor type 2 [21]", "value": "6.7 µM (active)"}, {"measurement": "IC50", "setting": "Orexin receptor type 2 [22]", "value": "25.1 µM (inactive)"}, {"measurement": "IC50", "setting": "[23]", "value": "> 5.53 µM (active)"}, {"measurement": "IC50", "setting": "[24]", "value": "31.4 µM (inactive)"}, {"measurement": "IC50", "setting": "[25]", "value": "6.33 µM (active)"}, {"measurement": "IC50", "setting": "CHO-K1", "value": "> 66.2 µM (inactive)"}, {"measurement": "CC50", "setting": "[26]", "value": "> 40 µM (active)"}]}
{"compound": "O=C(c1ccc(Cl)cc1)N1CCN(c2nccs2)CC1", "values": [{"measurement": "AC50", "setting": "Candida albicans [27]", "value": "3.77 µM (active)"}, {"measurement": "AC50", "setting": "Candida albicans [28]", "value": "3.24 µM (active)"}, {"measurement": "AC50", "setting": "Candida albicans [29]", "value": "555 nM (active)"}, {"measurement": "AC50", "setting": "Candida albicans [30]", "value": "20 µM (active)"}, {"measurement": "AC50", "setting": "Candida albicans [31]", "value": "195 µM (active)"}]}
{"compound": "COc1ccc(S(=O)(=O)N(C)C[C@@H]2Oc3c(NC(=O)Nc4cccc5ccccc45)cccc3C(=O)N([C@@H](C)CO)C[C@H]2C)c(OC)c1", "values": [{"measurement": "AC50", "setting": "INS1 [32]", "value": "74.1 µM (active)"}, {"measurement": "AC50", "setting": "INS1 [33]", "value": "45.5 µM (active)"}, {"measurement": "AC50", "setting": "INS1 [34]", "value": "> 260 µM (inactive)"}, {"measurement": "AC50", "setting": "[35]", "value": "27.7 µM (active)"}]}
